Reference: patent US12173018B2, “Penicillin-binding protein inhibitors” (priority 2018, dated 2024)
Values after ≈ are worked out from the molar mass of the structure shown. Read-outs that look alike come from different tables or passages of the source.

Key:
E. coli AG100 = assay: Broth microdilution MIC, E. coli AG100 (wild-type parent); assay type: cell-based; settings: Escherichia coli; wild-type parent E. coli AG100, broth microdilution; read-out: MIC E. coli AG100
How it was run: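 Starting inoculum of 5×10^5 CFU/mL, from colonies grown 3-5 h in Mueller-Hinton broth with divalent cations, added to two-fold compound dilution series.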

K. pneumoniae 848844 = assay: microbe, parasite or virus in culture; assay type: cell-based, Klebsiella pneumoniae; settings: Klebsiella pneumoniae; K. pneumoniae 848844 producing SHV-11 and KPC-2; read-out: MIC K. pneumoniae 848844
How it was run: (§1)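 CLSI broth microdilution in cation-supplemented Mueller-Hinton broth; 2-fold compound dilutions inoculated at 5×10^5 CFU/mL from a 3-5 h log-phase culture. Plates incubated 16-20 hours at 37° C; MIC read visually as lowest concentration with no growth.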

N. gonorrhoeae FA19 = assay: Liquid broth MIC, N. gonorrhoeae FA19; assay type: cell-based; settings: Neisseria gonorrhoeae; N. gonorrhoeae FA19, liquid broth; read-out: Minimum Inhibitory Concentration, N. gonorrhoeae FA19
How it was run: (§2)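 MIC taken by eye as the lowest well lacking growth after 40-42 h at 36° C under 5% CO2. Compounds were 2-fold serially diluted; the starting inoculum of 5×10^5 CFU/mL came from direct colony suspensions grown on Kellogg's-supplemented GC agar.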

N. gonorrhoeae FA1090 = assay: Liquid broth MIC, N. gonorrhoeae FA1090; assay type: cell-based; settings: Neisseria gonorrhoeae; N. gonorrhoeae FA1090, liquid broth; read-out: Minimum Inhibitory Concentration, N. gonorrhoeae FA1090
How it was run: as §2

E. coli PBP3 = E. coli PBP3 (Escherichia coli (strain K12), UniProt P0AD68); assay: E. coli PBP3 Bocillin-FL fluorescence polarization competition binding assay
How it was run: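 This was a fluorescence polarization competition with fluorescent penicillin Bocillin-FL (0.1 μM final), read at 490/520 nm for 60 min immediately after its addition. The buffer was Hepes pH 8.0 with 300 mM NaCl and 5% glycerol, containing 1.5 μM PBP and test inhibitor up to 1000 μM. Potency is expressed as EC50 for reducing probe binding.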

[1] = system: P. aeruginosa (ΔmexAB-oprM); assay: microbe, parasite or virus in culture; assay type: cell-based; settings: Pseudomonas aeruginosa, read-out: MIC P. aeruginosa ΔmexAB-OprM
How it was run: as §1

[2] = fluorescence polarization competition binding with Bocillin-FL, read-out: E. coli K12 PBP3 Potency

E. coli PBP3, sequence (P0AD68 whole entry): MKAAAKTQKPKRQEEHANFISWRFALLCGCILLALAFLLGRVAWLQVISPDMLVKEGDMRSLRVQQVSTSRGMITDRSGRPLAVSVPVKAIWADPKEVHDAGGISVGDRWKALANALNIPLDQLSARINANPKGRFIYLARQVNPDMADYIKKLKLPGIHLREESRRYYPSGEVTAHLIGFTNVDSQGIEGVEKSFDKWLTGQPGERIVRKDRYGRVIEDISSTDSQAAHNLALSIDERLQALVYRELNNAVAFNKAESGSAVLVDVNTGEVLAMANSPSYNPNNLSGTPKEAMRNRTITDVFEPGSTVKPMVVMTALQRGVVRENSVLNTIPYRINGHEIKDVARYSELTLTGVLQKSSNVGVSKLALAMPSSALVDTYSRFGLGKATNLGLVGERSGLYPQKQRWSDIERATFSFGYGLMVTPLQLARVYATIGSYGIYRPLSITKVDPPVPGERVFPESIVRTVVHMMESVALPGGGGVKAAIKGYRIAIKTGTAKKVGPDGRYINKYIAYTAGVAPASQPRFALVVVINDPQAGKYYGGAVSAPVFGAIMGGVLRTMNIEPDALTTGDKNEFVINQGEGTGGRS

Row | Structure (SMILES) | MIC (E. coli AG100) | MIC (K. pneumoniae 848844) | MIC (N. gonorrhoeae FA19) | MIC (N. gonorrhoeae FA1090) | EC50 (E. coli PBP3; [2]) | MIC [1] | EC50 (E. coli PBP3)
1 | CCN1CCN(C(=O)NC(C(=O)N[C@H]2Cc3cccc(C(=O)O)c3OB2O)c2ccc(O)c(O)c2F)C(=O)C1=O (stereo partly shown) [Example 70] | 2 to 4 µg/mL | 8 to 16 µg/mL | 1 to 2 µg/mL (≈ 1.79 to 3.58 µM) | < 0.125 µg/mL | < 30 µM | 0.5 to 1 µg/mL | 
2 | O=C(O)c1cccc2c1OB(O)[C@@H](NC(=O)C(NC(=O)N1CCN(CCF)C(=O)C1=O)c1ccc(O)c(O)c1Cl)C2 (stereo partly drawn) [Example 71, (3R)-3-(2-(2-chloro-3,4-dihydroxyphenyl)-2-(4-(2-fluoroethyl)-2,3-dioxopiperazine-1-carboxamido)acetamido)-2-hydroxy-3,4-dihydro-2H-benzo[e][1,2]oxaborinine-8-carboxylic acid] | 2 to 4 µg/mL |  |  |  | < 30 µM | 2 to 4 µg/mL | 
3 | CCN1CCN(C(=O)NC(C(=O)N[C@H]2Cc3ccc(F)c(C(=O)O)c3OB2O)c2ccc(O)c(O)c2Cl)C(=O)C1=O (stereo partly drawn) [Example 124, (3R)-3-(2-(2-chloro-3,4-dihydroxyphenyl)-2-(4-ethyl-2,3-dioxopiperazine-1-carboxamido)acetamido)-7-fluoro-2-hydroxy-3,4-dihydro-2H-benzo[e][1,2]oxaborinine-8-carboxylic acid] | 0.5 to 1 µg/mL | > 128 µg/mL | 4 to 8 µg/mL (≈ 6.75 to 13.5 µM) | 1 to 2 µg/mL (≈ 1.69 to 3.37 µM) |  | < 0.25 µg/mL | 30 to 500 µM
4 | CCCN1CCN(C(=O)NC(C(=O)N[C@H]2Cc3ccc(F)c(C(=O)O)c3OB2O)c2ccc(O)c(O)c2Cl)C(=O)C1=O (stereo partly shown) [Example 125] | 2 to 4 µg/mL |  | 16 to 32 µg/mL (≈ 26.4 to 52.7 µM) | 1 to 2 µg/mL (≈ 1.65 to 3.3 µM) |  | < 0.25 µg/mL | 30 to 500 µM
5 | O=C(O)c1c(F)ccc2c1OB(O)[C@@H](NC(=O)C(NC(=O)N1CCN(CCF)C(=O)C1=O)c1ccc(O)c(O)c1Cl)C2 (stereo partly shown) [Example 131] | 8 to 16 µg/mL | 32 to 64 µg/mL | 4 to 8 µg/mL (≈ 6.55 to 13.1 µM) | 0.25 to 0.5 µg/mL (≈ 0.409 to 0.819 µM) |  | < 0.25 µg/mL | 30 to 500 µM
6 | CCN1CCN(C(=O)NC(C(=O)N[C@H]2Cc3cccc(C(=O)O)c3OB2O)c2ncc(O)cc2F)C(=O)C1=O (stereo partly drawn) [Example 135, (3R)-3-(2-(4-ethyl-2,3-dioxopiperazine-1-carboxamido)-2-(3-fluoro-5-hydroxypyridin-2-yl)acetamido)-2-hydroxy-3,4-dihydro-2H-benzo[e][1,2]oxaborinine-8-carboxylic acid] | 8 to 16 µg/mL | 32 to 64 µg/mL | 1 to 2 µg/mL (≈ 1.84 to 3.68 µM) | < 0.125 µg/mL | < 30 µM |  | 
7 | CCN1CCN(C(=O)NC(C(=O)N[C@H]2Cc3ccc(F)c(C(=O)O)c3OB2O)c2cc(O)c(O)cc2F)C(=O)C1=O (stereo partly drawn) [Example 136, (3R)-3-(2-(4-ethyl-2,3-dioxopiperazine-1-carboxamido)-2-(2-fluoro-4,5-dihydroxyphenyl)acetamido)-7-fluoro-2-hydroxy-3,4-dihydro-2H-benzo[e][1,2]oxaborinine-8-carboxylic acid] | 2 to 4 µg/mL | 32 to 64 µg/mL | 4 to 8 µg/mL (≈ 6.94 to 13.9 µM) | 1 to 2 µg/mL (≈ 1.74 to 3.47 µM) | < 30 µM | 0.5 to 1 µg/mL | 
8 | CCN1CCN(C(=O)NC(C(=O)N[C@H]2Cc3ccc(F)c(C(=O)O)c3OB2O)c2ncc(O)cc2F)C(=O)C1=O (stereo partly drawn) [Example 145, (3R)-3-(2-(4-ethyl-2,3-dioxopiperazine-1-carboxamido)-2-(3-fluoro-5-hydroxypyridin-2-yl)acetamido)-7-fluoro-2-hydroxy-3,4-dihydro-2H-benzo[e][1,2]oxaborinine-8-carboxylic acid] | 8 to 16 µg/mL | 32 to 64 µg/mL | 1 to 2 µg/mL (≈ 1.78 to 3.56 µM) | < 0.125 µg/mL | < 30 µM | 8 to 16 µg/mL | 
9 | CCN1CCN(C(=O)NC(C(=O)N[C@H]2Cc3ccc(F)c(C(=O)O)c3OB2O)c2ccc(O)c(O)c2F)C(=O)C1=O (stereo partly drawn) [Example 149, (3R)-3-(2-(4-ethyl-2,3-dioxopiperazine-1-carboxamido)-2-(2-fluoro-3,4-dihydroxyphenyl)acetamido)-7-fluoro-2-hydroxy-3,4-dihydro-2H-benzo[e][1,2]oxaborinine-8-carboxylic acid] | 2 to 4 µg/mL | 2 to 4 µg/mL | 1 to 2 µg/mL (≈ 1.74 to 3.47 µM) | 0.25 to 0.5 µg/mL (≈ 0.434 to 0.868 µM) |  | < 0.25 µg/mL | 30 to 500 µM
